Earlier results as cited in patent publication US20230270851A1, “METHODS FOR THE TREATMENT OF IDIOPATHIC ORBITAL INFLAMMATION AND RELATED CONDITIONS” (HORIZON THERAPEUTICS IRELAND DAC, priority 2020, published 2023).

Tests used:
IGF-1R = IGF-1R (Homo sapiens, UniProt P08069); settings: A-928605: purified enzyme; INSM-18: receptor activation; cited from earlier work
ALK = ALK (Homo sapiens, UniProt Q9UM73); settings: cited from earlier work
neuroblastoma = settings: cited from earlier work
[1] = cited from earlier work
tumors = settings: in vivo; cited from earlier work
IGF-IR = IGF-IR (Homo sapiens, UniProt P08069); settings: cited from earlier work
IGF-IR, sequence (P08069 31-1367): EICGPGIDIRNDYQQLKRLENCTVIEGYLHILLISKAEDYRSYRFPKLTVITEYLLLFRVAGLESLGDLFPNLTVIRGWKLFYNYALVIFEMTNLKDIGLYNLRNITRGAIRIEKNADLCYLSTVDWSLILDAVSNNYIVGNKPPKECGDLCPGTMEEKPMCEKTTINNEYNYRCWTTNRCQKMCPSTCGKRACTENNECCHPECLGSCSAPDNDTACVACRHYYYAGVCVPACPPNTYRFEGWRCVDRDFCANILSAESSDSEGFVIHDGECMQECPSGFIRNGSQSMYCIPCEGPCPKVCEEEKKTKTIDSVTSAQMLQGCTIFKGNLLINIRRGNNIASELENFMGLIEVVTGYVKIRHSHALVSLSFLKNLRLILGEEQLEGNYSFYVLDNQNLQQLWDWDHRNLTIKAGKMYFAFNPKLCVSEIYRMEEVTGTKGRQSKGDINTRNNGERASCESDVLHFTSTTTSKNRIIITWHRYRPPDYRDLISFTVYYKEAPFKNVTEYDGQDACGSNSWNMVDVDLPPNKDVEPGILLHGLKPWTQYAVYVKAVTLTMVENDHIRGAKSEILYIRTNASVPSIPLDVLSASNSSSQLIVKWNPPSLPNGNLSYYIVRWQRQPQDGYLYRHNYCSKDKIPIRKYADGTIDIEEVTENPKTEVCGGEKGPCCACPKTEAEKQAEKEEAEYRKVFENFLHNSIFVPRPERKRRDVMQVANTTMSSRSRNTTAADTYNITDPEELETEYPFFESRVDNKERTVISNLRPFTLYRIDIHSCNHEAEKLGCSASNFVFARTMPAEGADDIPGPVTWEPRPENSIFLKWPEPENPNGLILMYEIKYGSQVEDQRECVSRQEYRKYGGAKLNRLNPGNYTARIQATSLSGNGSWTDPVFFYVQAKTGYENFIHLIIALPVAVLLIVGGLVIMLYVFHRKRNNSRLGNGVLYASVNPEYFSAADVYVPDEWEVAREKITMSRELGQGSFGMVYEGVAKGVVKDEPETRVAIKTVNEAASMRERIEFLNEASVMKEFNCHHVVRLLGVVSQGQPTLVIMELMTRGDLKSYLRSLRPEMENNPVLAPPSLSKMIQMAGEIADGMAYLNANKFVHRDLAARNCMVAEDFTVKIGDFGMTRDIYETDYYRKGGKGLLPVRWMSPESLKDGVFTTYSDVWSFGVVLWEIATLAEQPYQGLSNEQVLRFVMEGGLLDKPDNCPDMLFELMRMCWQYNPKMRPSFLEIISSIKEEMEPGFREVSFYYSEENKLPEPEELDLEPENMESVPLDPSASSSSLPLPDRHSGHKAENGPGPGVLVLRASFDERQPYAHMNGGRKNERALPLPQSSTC

[2] = biological target: c-erbB2/HER2/neu receptor (Homo sapiens, UniProt P04626); settings: cited from earlier work
c-erbB2/HER2/neu receptor, sequence (P04626 23-1255): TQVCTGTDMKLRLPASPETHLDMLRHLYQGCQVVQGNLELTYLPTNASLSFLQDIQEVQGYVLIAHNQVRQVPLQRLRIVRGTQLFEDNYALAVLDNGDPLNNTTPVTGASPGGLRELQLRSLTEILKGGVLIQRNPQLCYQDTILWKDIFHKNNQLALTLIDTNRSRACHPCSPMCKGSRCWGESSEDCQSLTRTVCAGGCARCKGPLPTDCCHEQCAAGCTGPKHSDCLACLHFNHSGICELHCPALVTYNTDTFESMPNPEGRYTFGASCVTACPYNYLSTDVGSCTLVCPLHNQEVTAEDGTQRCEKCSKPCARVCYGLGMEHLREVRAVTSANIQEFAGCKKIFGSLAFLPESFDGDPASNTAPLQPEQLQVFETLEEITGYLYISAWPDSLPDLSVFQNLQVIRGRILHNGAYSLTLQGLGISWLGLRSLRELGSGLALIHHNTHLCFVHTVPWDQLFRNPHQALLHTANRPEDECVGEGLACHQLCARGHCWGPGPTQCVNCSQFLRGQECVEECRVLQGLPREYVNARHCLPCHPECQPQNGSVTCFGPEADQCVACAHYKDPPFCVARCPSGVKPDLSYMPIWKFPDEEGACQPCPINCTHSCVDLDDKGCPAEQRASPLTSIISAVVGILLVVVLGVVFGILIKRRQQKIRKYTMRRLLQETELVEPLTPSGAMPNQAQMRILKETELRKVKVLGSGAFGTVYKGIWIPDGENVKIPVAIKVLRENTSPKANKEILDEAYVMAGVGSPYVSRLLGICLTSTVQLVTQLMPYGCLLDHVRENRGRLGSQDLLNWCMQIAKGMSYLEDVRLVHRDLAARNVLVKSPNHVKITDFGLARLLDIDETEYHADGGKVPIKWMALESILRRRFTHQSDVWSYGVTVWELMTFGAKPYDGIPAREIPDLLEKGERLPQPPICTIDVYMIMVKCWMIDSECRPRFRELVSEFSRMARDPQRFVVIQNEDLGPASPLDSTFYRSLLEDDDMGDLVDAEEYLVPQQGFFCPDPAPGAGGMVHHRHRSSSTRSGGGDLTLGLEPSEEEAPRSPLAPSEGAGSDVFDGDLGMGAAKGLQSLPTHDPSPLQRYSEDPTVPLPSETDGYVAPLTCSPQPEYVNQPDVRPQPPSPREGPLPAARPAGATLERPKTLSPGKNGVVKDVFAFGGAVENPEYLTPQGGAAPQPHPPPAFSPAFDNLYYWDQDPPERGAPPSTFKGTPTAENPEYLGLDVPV

[3] = system: susceptible tumor cell populations; settings: cited from earlier work
[4] = system: IGF-1 R-overexpressing tumor cells; settings: cited from earlier work

IGF-1R, sequence (P08069 31-1367): as the sequence (P08069 31-1367) above
ALK, sequence (Q9UM73 19-1620, species assumed): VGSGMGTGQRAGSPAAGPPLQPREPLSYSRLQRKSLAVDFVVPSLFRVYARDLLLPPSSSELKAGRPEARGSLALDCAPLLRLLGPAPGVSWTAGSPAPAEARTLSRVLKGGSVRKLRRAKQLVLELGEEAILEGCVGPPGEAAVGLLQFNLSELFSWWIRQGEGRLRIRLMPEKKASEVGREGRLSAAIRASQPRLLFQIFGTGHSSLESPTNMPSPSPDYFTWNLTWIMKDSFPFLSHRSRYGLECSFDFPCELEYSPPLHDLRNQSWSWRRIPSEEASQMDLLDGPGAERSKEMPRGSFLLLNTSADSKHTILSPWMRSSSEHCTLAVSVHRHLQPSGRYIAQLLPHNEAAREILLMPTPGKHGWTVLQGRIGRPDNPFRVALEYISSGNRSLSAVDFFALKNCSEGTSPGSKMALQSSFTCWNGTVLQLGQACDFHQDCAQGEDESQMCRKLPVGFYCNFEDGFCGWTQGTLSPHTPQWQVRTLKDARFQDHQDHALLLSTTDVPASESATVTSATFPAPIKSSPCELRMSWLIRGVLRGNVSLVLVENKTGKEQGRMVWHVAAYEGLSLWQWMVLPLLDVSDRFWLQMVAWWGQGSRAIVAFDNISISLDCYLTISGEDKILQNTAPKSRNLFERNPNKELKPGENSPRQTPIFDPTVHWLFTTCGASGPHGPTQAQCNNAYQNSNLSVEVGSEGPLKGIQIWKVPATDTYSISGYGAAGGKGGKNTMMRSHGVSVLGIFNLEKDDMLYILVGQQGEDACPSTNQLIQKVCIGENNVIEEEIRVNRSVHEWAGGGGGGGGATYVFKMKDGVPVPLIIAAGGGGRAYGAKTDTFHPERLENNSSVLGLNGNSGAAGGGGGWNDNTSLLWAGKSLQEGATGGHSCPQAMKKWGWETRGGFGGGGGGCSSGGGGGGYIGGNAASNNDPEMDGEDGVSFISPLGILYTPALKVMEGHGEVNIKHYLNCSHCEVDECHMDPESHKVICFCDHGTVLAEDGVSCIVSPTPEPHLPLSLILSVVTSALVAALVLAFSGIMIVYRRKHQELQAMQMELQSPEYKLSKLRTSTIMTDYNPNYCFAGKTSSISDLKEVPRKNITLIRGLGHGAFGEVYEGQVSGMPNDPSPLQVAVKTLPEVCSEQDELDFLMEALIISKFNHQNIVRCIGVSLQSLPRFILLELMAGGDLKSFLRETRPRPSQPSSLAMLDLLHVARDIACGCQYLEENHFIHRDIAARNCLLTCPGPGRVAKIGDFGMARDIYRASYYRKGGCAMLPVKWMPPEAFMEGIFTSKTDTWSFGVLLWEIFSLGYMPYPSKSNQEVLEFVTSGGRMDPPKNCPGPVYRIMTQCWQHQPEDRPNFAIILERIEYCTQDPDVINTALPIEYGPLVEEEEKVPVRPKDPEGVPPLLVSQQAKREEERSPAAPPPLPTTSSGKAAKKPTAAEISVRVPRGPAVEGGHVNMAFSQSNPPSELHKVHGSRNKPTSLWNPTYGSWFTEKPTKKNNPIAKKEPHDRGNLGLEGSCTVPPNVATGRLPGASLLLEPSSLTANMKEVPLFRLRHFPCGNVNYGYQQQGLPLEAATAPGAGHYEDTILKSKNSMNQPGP

COc1cc(N2CCC(N)CC2)ccc1Nc1ncc(Cl)c(-c2c[nH]c3ccccc23)n1 [AZD3463]
inhibition of IGF-1R (IGF-1R): potent
inhibition of ALK (ALK): potent
apoptosis (neuroblastoma; neuroblastoma): inducing apoptosis
neuroblastoma growth (neuroblastoma; overcoming crizotinib resistance): inhibition of neuroblastoma growth

COCCN1CCN(CCn2ccc(Nc3ncc4c(n3)[C@@H](C)Cc3nn(C)c(-c5ccccc5)c3-4)n2)CC1 [BI885578]
in vivo half-life [1]: short
intestinal absorption ([1]; in vivo): rapid
metabolic clearance ([1]; in vivo): rapid
apoptosis in tumors (tumors): induction of apoptosis
cell proliferation in tumors (tumors): inhibition of cell proliferation

Nc1ncnc2c1c(-c1ccc3[nH]c(Cc4ccccc4Cl)nc3c1)nn2[C@H]1CC[C@H](N2CCOCC2)CC1 [Example A-928605]
inhibition of IGF-1R (IGF-1R): potent inhibitor
inhibition of intracellular IGF-IR phosphorylation (IGF-IR): potent inhibitor

C[C@H](Cc1ccc(O)c(O)c1)[C@@H](C)Cc1ccc(O)c(O)c1 [INSM-18, nordihydroguaiaretic acid]
inhibition of IGF-1R (IGF-1R): directly inhibits activation
inhibition of activation of the c-erbB2/HER2/neu receptor [2]: directly inhibits activation
proliferation of susceptible tumor cell populations [3]: decreased proliferation

CCOC(=O)N1CCC(Nc2cc(Cl)cc3c(S(=O)(=O)N4CCO[C@H](COc5ccccc5)C4)c(C(N)=O)[nH]c23)CC1 [PL-225B]
inhibition of IGF-1R (IGF-1R): selectively inhibits
tumor cell apoptosis [4]: induction of tumor cell apoptosis
tumor cell proliferation [4]: inhibition of tumor cell proliferation
